Data taken from US10463709B2, “Short synthetic peptide for treating diseases and/or conditions related to angiogenesis” (MacKay Memorial Hospital, priority 2015, dated 2019).
“Also recorded” adds a separate entry of the source. Ends that are not written are not given here.

How the values were obtained:
[1] = tested on: rat model of laser-induced wet AMD; assay: Laser-induced wet AMD, rat model; type: in vivo; settings: fluorescein angiography day 14; vs PBS vehicle
Description: Further, the effect of 7-mer or 7-mer DD on rat model of laser-induced wet AMD was also investigated. Fluorescein angiography images were obtained on day 14 after laser burn, and the images were subsequently scored. Results are depicted in FIG. 14.

HUVECs = assay: Endothelial cell capillary-like tube formation assay; type: cell-based
[2] = tested on: VEGF-induced corneal neovascularization; assay: Mouse corneal angiogenesis assay; type: in vivo, C57BL/6 mice; settings: VEGF 200 ng; peptide 2.5 μg in micropellet
Procedure: Briefly, corneal micropockets were created on 6-week-old C57BL/6 mice by use of a needle. A micropellet of sucrose aluminum sulfate and hydron polymer containing 200 ng VEGF with or without 2.5 μg peptide was plated into each corneal pocket. Eyes were then photographed by a slit-lamp biomicroscope on day 7 after micropellet implantation. Ingrowth of the blood vessels into avascular cornea toward pellet was scored as positive response. The results were reported as positive corneas of total implant.

B16-F10 melanoma cells = assay: Experimental pulmonary metastasis in mice; type: in vivo, C57BL/6 mice
Method in brief: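 Female C57BL/6 mice (6 weeks) received 2×10^5 B16-F10 cells i.v. via tail vein. Peptide, control peptide (10 mg/kg) or DMSO vehicle given i.p. every 2 days, 5 mice per group. Visible surface lung colonies counted under a dissecting microscope on day 8.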

[3] = tested on: STZ-induced diabetic mice; assay: Vascular abnormalities in the retina of diabetic mice; type: in vivo
Method in brief: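 Diabetes induced by single i.p. STZ 150 mg/kg; mice with non-fasting glucose >500 mg/dl after 1 week used. Peptide 10 mg/kg or DMSO vehicle i.p. twice daily for 24 h, then BSA-FITC 100 mg/kg i.p. for 30 min; retinal lesions counted on flat mounts (average lesions/retina), FITC-BSA leakage by fluorometry (ex 488/em 535 nm) normalized to non-injected control retina.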

In the case of “NH2-Asp-Leu-Tyr-Arg-Val-Arg-Ser-COOH (DLYRVRS; not fully specified (N-terminus, C-terminus); printed as NH2-Asp-Leu-Tyr-Arg-Val-Arg-Ser-COOH) [7-mer]”, the “lesions caused by the laser burn” value [1] is reported as “significantly ameliorated”, the “effect on VEGF-induced tube formation” value (HUVECs; HUVECs, VEGF, 6 hrs) is reported as “inhibited” and the “Tube length (Fold)” value (HUVECs; VEGF (10 ng/mL) + 25 μM peptide, vs untreated HUVECs) is reported as 1.24 ± 0.23 Fold. The “VEGF-induced neovascularization in the cornea” value [2] was “completely abolished”, the “effect on number of colonies on the surface of the lung / in vivo metastasis” value (B16-F10 melanoma cells; 10 mg/Kg intraperitoneal every 2 days) was “capable of reducing the number of colonies; also recorded: may suppress in vivo metastasis” and the No. lung colonies (B16-F10 melanoma cells; 10 mg/Kg intraperitoneal every 2 days, day 8, n = 5) was 72 ± 16.0. The “Inhibition (%)” value (B16-F10 melanoma cells; lung colonies vs vehicle, 10 mg/Kg) was 67.9%, the “extravasation of FITC-BSA” value [3] was “may significantly prevent” and the “number of vascular lesions in retina” value ([3]; 10 mg/kg intraperitoneal twice a day, 24 h) was 1.8±0.54. For the same substance, the “hemorrhage in the retinal parenchyma” value ([3]; intraperitoneal) was “successfully blocked” and the “Fluorescence Intensity (Fold)” value ([3]; leaked FITC-BSA in entire retina, vs vehicle) was 0.29 ± 0.076 Fold.
